Data on 7 molecules can be found in PubChem BioAssay (NCI).

Common to all, as to assay: NCI tumour cell line growth inhibition, 48 h
The subject of experiment [1] is UACC-62 melanoma.
Experiment [2] relates to K-562 leukemia.
The test system of experiment [3] is HCC-2998 colon.
Experiment [4] relates to ACHN renal.
In experiment [5] the test system is KM12 colon.
Experiment [6] has as its system UO-31 renal.
Experiment [7] deals with HCT-15 colon.
In experiment [8] the test system is BT-549 breast.
Experiment [9] deals with SK-MEL-5 melanoma.
The test system of experiment [10] is SF-295 CNS.

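Growth conditions: 96-well plates. Treatment: test compound, 48 hours, 5 concentrations. Analysis: linear interpolation between bracketing concentrations; unreached endpoints set to highest concentration. GI50 = concentration required for 50% inhibition of growth. The concentration for full growth arrest is given as TGI.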 Bounds are passed on as bounds.

As to `O=C1C(=O)c2ccc(Br)cc2-c2cc(Br)ccc21`, the GI50 in experiment [1] was 15.2 µM; in experiment [2], 0.799 µM; in experiment [3] it was 21.3 µM; in experiment [4], 1.52 µM; in [5] it was 9.65 µM; in experiment [6] it was 5.61 µM. Also, the GI50 in [7] is 1.28 µM; in experiment [8] it was 7.69 µM; in [9], 3.89 µM; in [10] it was 51.8 µM. Besides, the TGI in [1] was above 64.9 µM; in [2] it was above 29.8 µM; in [3] it was above 100 µM; in experiment [5] it was above 100 µM; in experiment [6], above 100 µM; in experiment [7] it was above 35 µM. Besides, the TGI is above 95.3 µM in [8], above 33 µM in experiment [9] and above 100 µM in experiment [10].

As for `CCN(CC)c1ccc(NC(C(=O)c2ccccc2)c2ccccc2)cc1` (centres undefined), the GI50 is 1.92 µM in experiment [1]; 3.27 µM in [2]; 2.81 µM in experiment [3]; 1.9 µM in experiment [4]; 4.03 µM in experiment [5]; 1.9 µM in experiment [6]. For the same molecule, the GI50 in [7] was 1.96 µM; in experiment [8], 2.85 µM; in [9] it was 2 µM; in experiment [10], 3.34 µM. Besides, the TGI worked out at 4.09 µM in [1]; 55.1 µM in experiment [2]; 8.62 µM in experiment [3]; 3.82 µM in experiment [4]; 15.7 µM in [5]; 4.18 µM in experiment [6]. The TGI stood at 5.31 µM in experiment [7], 9.59 µM in experiment [8], 4.66 µM in experiment [9] and 12.6 µM in [10].

In the case of `Cc1cc(N(CCCl)CCCl)ccc1C=Nc1cccnc1`, the GI50 is 1.59 µM in experiment [1]; 34.7 µM in experiment [2]; 16.8 µM in [3]; 5.38 µM in [4]; 42.6 µM in experiment [5]; 12.4 µM in experiment [6]. Moreover, the GI50 in [7] was 27.5 µM; in [8], 12.8 µM; in [9], 14.6 µM; in experiment [10], 8.68 µM. Moreover, the TGI in experiment [1] was 16.1 µM; in [2], above 100 µM; in experiment [3] it was 32 µM; in experiment [4], above 100 µM; in experiment [5], above 100 µM; in experiment [6], above 86.7 µM. Also, the TGI was above 100 µM in experiment [7], 53.9 µM in [8], 41.7 µM in [9] and above 95.7 µM in [10].

With `CC1(C)CCC(S(=O)(=O)c2ccc3c(c2)/C(=N\O)c2cc(S(=O)(=O)N4CCC(O)(c5cccc(C(F)(F)F)c5)CC4)ccc2-3)CC1`, the GI50 is 0.0196 µM in [1]; 0.0219 µM in experiment [2]; 0.0237 µM in [3]; 0.0431 µM in experiment [4]; 0.0217 µM in experiment [5]; 1.67 µM in experiment [6]. Moreover, the GI50 in experiment [7] was 0.0694 µM; in experiment [8] it was 0.054 µM; in experiment [9], 0.0454 µM; in [10], 0.0272 µM. For the same molecule, the TGI amounted to 0.0351 µM in experiment [1]; 0.0492 µM in experiment [2]; 0.0545 µM in [3]; 1.41 µM in experiment [4]; 0.0503 µM in [5]; 5.49 µM in experiment [6]. In addition, the TGI was 4.52 µM in experiment [7], 0.226 µM in experiment [8], 0.18 µM in [9] and 0.11 µM in experiment [10].

Regarding `COc1ccc2c(c1)C(=O)c1c-2c(NCCCN(C)C)nc2ccccc12`, the GI50 is 2.09 µM in experiment [1]; 3.69 µM in [2]; 2.48 µM in experiment [3]; 1.11 µM in [4]; 2.05 µM in [5]; 4.91 µM in [6]. Moreover, the GI50 was 1.42 µM in [7], 21.8 µM in [8], 3.87 µM in experiment [9] and 5.13 µM in experiment [10]. Moreover, the TGI is 4.41 µM in [1]; 14.7 µM in experiment [2]; 11.7 µM in experiment [3]; 2.31 µM in [4]; 5.72 µM in experiment [5]; 18.4 µM in experiment [6]. The TGI in experiment [7] is 3.2 µM; in experiment [8], 62.3 µM; in experiment [9], 14.4 µM; in experiment [10], 18.9 µM.

As for `O=C(NNc1nc2cc(F)ccc2n2c(CN3CCOCC3)ccc12)c1ccccc1`, the GI50 in experiment [1] is 0.244 µM; in [2], 0.336 µM; in experiment [3] it was 0.569 µM; in experiment [4], 0.079 µM; in experiment [5], 0.369 µM; in experiment [6], 0.0574 µM. The GI50 in experiment [7] is 0.0577 µM; in [8] it was 0.559 µM; in experiment [9], 0.438 µM; in experiment [10] it was 0.181 µM. In addition, the TGI in experiment [1] amounted to 1.14 µM; in experiment [2] it was 4.21 µM; in experiment [3], 3.07 µM; in experiment [4], 1.41 µM; in [5] it was 2.45 µM; in experiment [6], 1.3 µM. Further, the TGI is 1.41 µM in [7], 6.57 µM in experiment [8], 2.06 µM in experiment [9] and 1.52 µM in experiment [10].

`C=CC1CC12C(=O)C1OC2(C)C2C(=O)c3ccccc3C(=O)C12` (centres undefined): the GI50 in [1] was 35.1 µM; in [2], 2.3 µM; in experiment [3], above 100 µM; in experiment [4], 57.3 µM; in [5] it was above 45.3 µM; in experiment [6], above 87.3 µM. Also, the GI50 in [7] is 41.9 µM; in [8], above 72.9 µM; in [9], 18.7 µM; in experiment [10], 23.6 µM. The TGI in experiment [1] was above 100 µM; in experiment [2] it was 6.94 µM; in experiment [3] it was above 100 µM; in [4] it was above 100 µM; in experiment [5], above 80.8 µM; in [6] it was above 100 µM. Also, the TGI in [7] was above 100 µM; in experiment [8], above 100 µM; in experiment [9], 54.7 µM; in experiment [10], 59.8 µM.
